{"source": "paper PMC12020424", "about": "“Identification and Validation of Cyclic Peptides with Mucin-Selective, Location-Specific Binding in the Gastrointestinal Tract” (ACS Nano, 2025)", "tested_on": "MUC5AC-containing stomach tissue", "experiment": "Ex vivo fluorescent binding to stomach tissue", "set-up": "species or system porcine", "details": "MUC5AC-selective peptides to stomach", "from_the_text": "After identifying the peptide hits for each mucin, we tested their binding in an ex vivo setting (Figure S1), evaluating their interaction with mucin-containing porcine tissue and semiquantitatively representing it through fluorescent imaging (Figure 3a). The cyclic peptides were synthesized and conjugated to a fluorophore, Alexa Fluor 647 (AF647), at the N-terminus to allow fluorescent imaging to be used to semiquantitatively measure the peptides’ ex vivo tissue binding, compared to free AF647 and AF647 conjugated to wheat germ agglutinin (WGA), a known lectin for glycoproteins.[40] […] Porcine GI tissue was used due to its similarity in mucin expression compared to human GI tissue and its capacity to source large surface areas of tissue for experiments.[41],[42] Representative IVIS images are shown in Figure 3b-e, where the first four columns represent the four identified peptides (M2.1–M2.4 in Figure 3b,c, M5.1–M5.4 in Figure 3d,e), the fifth column represents WGA-AF647, and the sixth column represents AF647. The “score” results for the peptide ligands are presented in Figure 3f,g for the mucins of interest, with Tables S2–S5 and Figure S3 detailing results for the other tissues (the equation for calculating the “score” is found in the Materials and Methodssection). […] We also examined selectivity by incubating peptides on nontarget tissues. Figure 3h,i depicts the “selectivity” results for the MUC2-selective and MUC5AC-selective peptides, respectively. Selectivity was calculated by determining the ratio of the “score” for a particular mucin to the sum of the “scores” for all mucins (see the Materials and Methods section for the equation used).\nThe top-performing hits from phage display were tested on ex vivo segments of porcine mucin-containing tissues (jejunal, stomach, and esophageal tissues) obtained from local abattoirs or laboratory-maintained pigs. Tissue was used either immediately after acquisition or after storage at −80 °C; tissue was used at most 1 week after acquisition and storage at −80 °C. After acquisition and equilibration to room temperature, the tissue was washed twice with 25 mL (each) of cold 1× PBS to remove undigested food and other debris. After washing and cleaning, the tissue was mounted between two magnetic plates with holes corresponding to a 48-well plate, as previously described,[72] such that the luminal side of the tissue was facing up (Figure S1). After the tissue was mounted, the amount of peptide/protein corresponding to 40 μg of AF647 was suspended in 200 μL of 1× PBS and added to the wells created by the magnetic plates. This was done 3× for each formulation to perform the experiment in triplicate. In addition, plain 1× PBS was added to one well to serve as the background measurement. […] After washing was complete, fluorescence imaging was performed using an IVIS Spectrum fluorescent imaging system (PerkinElmer), with an automatically calculated exposure time (usually ∼1 s), a 20 cm × 20 cm field of view, and an excitation/emission of 640/680 nm, respectively. The imaging results were analyzed using Living Image software to calculate the total fluorescence intensity for each well, and the results for each hit or control were averaged across different wells. […]\nTo better account for tissue-to-tissue variability, the results for each trial were reported as scores rather than using the raw fluorescence intensity. […]", "note": "Bridge positions count the residues as written; N and C are the ends. Ends that are not written are not given here.", "data": [{"sequence": "CTDKASSSC (disulfide 1-9 (inferred)) [Peptide M5.1, CX7C cyclic peptide hit for MUC5AC]", "values": [{"measurement": "Overall nanoparticle “score”", "setting": "scaled between free AF647 (0) and WGA-AF647 (1), mean across trials n = 3", "result": 0.800}, {"measurement": "Selectivity", "setting": "score for MUC5AC tissue / sum of scores for all mucins, n = 3", "result": 0.370}]}]}
